Measurements published in PubChem BioAssay AID2060610 (Molecular Pharmacology Branch, DTP, NCI, 2025).

Tested on: 616215-338-R-J1-PDC complex spheroids, viability % test/control
Assay: Anticancer human tumor 616215-338-R-J1-PDC patient-derived colon adenocarcinoma cell line growth inhibition [CLK]
Details: for IC50: curve of first compound; for viability, T/C: stronger effect = lower value
Summary of the method: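 Multi-cell-type spheroids combined patient-derived tumor cells with HUVEC endothelial cells and human mesenchymal stem cells. Paired agents were dosed in half-log steps down from about clinical Cmax, or from 10 microM where Cmax was unknown.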

[1] = second compound 0.0316 µM, first compound 0.00949 µM
[2] = second compound 0.0316 µM, first compound 0.03 µM
[3] = second compound 0.0316 µM, first compound 0.0949 µM
[4] = second compound 0.0316 µM, first compound 0.3 µM
[5] = second compound 0.1 µM, first compound 0.00949 µM
[6] = second compound 0.1 µM, first compound 0.03 µM
[7] = second compound 0.1 µM, first compound 0.0949 µM
[8] = second compound 0.1 µM, first compound 0.3 µM
[9] = second compound 0.316 µM, first compound 0.00949 µM
[10] = second compound 0.316 µM, first compound 0.03 µM
[11] = second compound 0.316 µM, first compound 0.0949 µM
[12] = second compound 0.316 µM, first compound 0.3 µM
[13] = second compound 1 µM, first compound 0.00949 µM
[14] = second compound 1 µM, first compound 0.03 µM
[15] = second compound 1 µM, first compound 0.0949 µM
[16] = second compound 1 µM, first compound 0.3 µM
[17] = second compound 3.16 µM, first compound 0.00949 µM
[18] = second compound 3.16 µM, first compound 0.03 µM
[19] = second compound 3.16 µM, first compound 0.0949 µM
[20] = second compound 3.16 µM, first compound 0.3 µM
[21] = second compound 10 µM, first compound 0.00949 µM
[22] = second compound 10 µM, first compound 0.03 µM
[23] = second compound 10 µM, first compound 0.0949 µM
[24] = second compound 10 µM, first compound 0.3 µM
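Also: spheroids exposed to agents for 7 days.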
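For viability, T/C in this document: 100% = DMSO vehicle wells.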

C=CC(=O)Nc1cc(Nc2nccc(-c3cn(C)c4ccccc34)n2)c(OC)cc1N(C)CCN(C)C + CN1CCN(c2cc(C(=O)Nc3cc4cc(-c5cnn(C)c5)ccc4cn3)ccn2)CC1
IC50 (second compound 0.0316 µM): > 300 nM
IC50 (second compound 0.1 µM): > 300 nM
IC50 (second compound 0.316 µM): < 0.949 nM
IC50 (second compound 1 µM): < 0.949 nM
IC50 (second compound 3.16 µM): < 0.949 nM
IC50 (second compound 10 µM): < 0.949 nM
viability, T/C (second compound 0.0316 µM, first compound 0.000949 µM): 104%
viability, T/C (second compound 0.0316 µM, first compound 0.003 µM): 102%
viability, T/C [1]: 93.5%
viability, T/C [2]: 103%
viability, T/C [3]: 107%
viability, T/C [4]: 107%
viability, T/C (second compound 0.1 µM, first compound 0.000949 µM): 125%
viability, T/C (second compound 0.1 µM, first compound 0.003 µM): 114%
viability, T/C [5]: 110%
viability, T/C [6]: 111%
viability, T/C [7]: 97.3%
viability, T/C [8]: 79.2%
viability, T/C (second compound 0.316 µM, first compound 0.000949 µM): 30.5%
viability, T/C (second compound 0.316 µM, first compound 0.003 µM): 35.5%
viability, T/C [9]: 37%
viability, T/C [10]: 25.2%
viability, T/C [11]: 24.5%
viability, T/C [12]: 20.4%
viability, T/C (second compound 1 µM, first compound 0.000949 µM): 0.17%
viability, T/C (second compound 1 µM, first compound 0.003 µM): 0.18%
viability, T/C [13]: 1.87%
viability, T/C [14]: 0.19%
viability, T/C [15]: 0.34%
viability, T/C [16]: 1.79%
viability, T/C (second compound 3.16 µM, first compound 0.000949 µM): 0.2%
viability, T/C (second compound 3.16 µM, first compound 0.003 µM): 0.16%
viability, T/C [17]: 0.17%
viability, T/C [18]: 0.17%
viability, T/C [19]: 1.76%
viability, T/C [20]: 1.73%
viability, T/C (second compound 10 µM, first compound 0.000949 µM): 0.28%
viability, T/C (second compound 10 µM, first compound 0.003 µM): 0.23%
viability, T/C [21]: 0.25%
viability, T/C [22]: 0.24%
viability, T/C [23]: 0.22%
viability, T/C [24]: 0.24%

NC(=O)C(=Cn1cnc(-c2cc(C(F)(F)F)cc(C(F)(F)F)c2)n1)c1cncnc1 + CN1CCN(c2cc(C(=O)Nc3cc4cc(-c5cnn(C)c5)ccc4cn3)ccn2)CC1
IC50 (second compound 0.0316 µM): 220 nM
IC50 (second compound 0.1 µM): 103 nM
IC50 (second compound 0.316 µM): < 9.49 nM
IC50 (second compound 1 µM): < 9.49 nM
IC50 (second compound 3.16 µM): < 9.49 nM
IC50 (second compound 10 µM): < 9.49 nM
viability, T/C [1]: 113%
viability, T/C [2]: 114%
viability, T/C [3]: 74.5%
viability, T/C [4]: 41.2%
viability, T/C (second compound 0.0316 µM, first compound 0.949 µM): 19.1%
viability, T/C (second compound 0.0316 µM, first compound 3 µM): 9.26%
viability, T/C [5]: 104%
viability, T/C [6]: 80.3%
viability, T/C [7]: 53.4%
viability, T/C [8]: 24.4%
viability, T/C (second compound 0.1 µM, first compound 0.949 µM): 9.65%
viability, T/C (second compound 0.1 µM, first compound 3 µM): 2.06%
viability, T/C [9]: 13.1%
viability, T/C [10]: 10.7%
viability, T/C [11]: 1.47%
viability, T/C [12]: 0.24%
viability, T/C (second compound 0.316 µM, first compound 0.949 µM): 0.92%
viability, T/C (second compound 0.316 µM, first compound 3 µM): 2.69%
viability, T/C [13]: 0.11%
viability, T/C [14]: 0.13%
viability, T/C [15]: 1.63%
viability, T/C [16]: 0.1%
viability, T/C (second compound 1 µM, first compound 0.949 µM): 0.37%
viability, T/C (second compound 1 µM, first compound 3 µM): 0.09%
viability, T/C [17]: 0.08%
viability, T/C [18]: 0.11%
viability, T/C [19]: 0.16%
viability, T/C [20]: 0.13%
viability, T/C (second compound 3.16 µM, first compound 0.949 µM): 0.13%
viability, T/C (second compound 3.16 µM, first compound 3 µM): 2.73%
viability, T/C [21]: 0.1%
viability, T/C [22]: 0.13%
viability, T/C [23]: 0.41%
viability, T/C [24]: 0.23%
viability, T/C (second compound 10 µM, first compound 0.949 µM): 0.23%
viability, T/C (second compound 10 µM, first compound 3 µM): 1.29%

Nc1ccccc1NC(=O)c1ccc(CNC(=O)OCc2cccnc2)cc1 + CN1CCN(c2cc(C(=O)Nc3cc4cc(-c5cnn(C)c5)ccc4cn3)ccn2)CC1
IC50 (second compound 0.0316 µM): 4240 nM
IC50 (second compound 0.1 µM): 2540 nM
IC50 (second compound 0.316 µM): < 31.6 nM
IC50 (second compound 1 µM): < 31.6 nM
IC50 (second compound 3.16 µM): < 31.6 nM
IC50 (second compound 10 µM): < 31.6 nM
viability, T/C (second compound 0.0316 µM, first compound 0.0316 µM): 95%
viability, T/C (second compound 0.0316 µM, first compound 0.1 µM): 95.3%
viability, T/C (second compound 0.0316 µM, first compound 0.316 µM): 110%
viability, T/C (second compound 0.0316 µM, first compound 1 µM): 118%
viability, T/C (second compound 0.0316 µM, first compound 3.16 µM): 62.7%
viability, T/C (second compound 0.0316 µM, first compound 10 µM): 12.6%
viability, T/C (second compound 0.1 µM, first compound 0.0316 µM): 110%
viability, T/C (second compound 0.1 µM, first compound 0.1 µM): 123%
viability, T/C (second compound 0.1 µM, first compound 0.316 µM): 118%
viability, T/C (second compound 0.1 µM, first compound 1 µM): 119%
viability, T/C (second compound 0.1 µM, first compound 3.16 µM): 34.1%
viability, T/C (second compound 0.1 µM, first compound 10 µM): 8.04%
viability, T/C (second compound 0.316 µM, first compound 0.0316 µM): 26.6%
viability, T/C (second compound 0.316 µM, first compound 0.1 µM): 31.3%
viability, T/C (second compound 0.316 µM, first compound 0.316 µM): 20.9%
viability, T/C (second compound 0.316 µM, first compound 1 µM): 18.9%
viability, T/C (second compound 0.316 µM, first compound 3.16 µM): 3.92%
viability, T/C (second compound 0.316 µM, first compound 10 µM): 2.67%
viability, T/C (second compound 1 µM, first compound 0.0316 µM): 0.16%
viability, T/C (second compound 1 µM, first compound 0.1 µM): 0.17%
viability, T/C (second compound 1 µM, first compound 0.316 µM): 2.95%
viability, T/C (second compound 1 µM, first compound 1 µM): 0.09%
viability, T/C (second compound 1 µM, first compound 3.16 µM): 3.76%
viability, T/C (second compound 1 µM, first compound 10 µM): 3.49%
viability, T/C (second compound 3.16 µM, first compound 0.0316 µM): 0.1%
viability, T/C (second compound 3.16 µM, first compound 0.1 µM): 0.71%
viability, T/C (second compound 3.16 µM, first compound 0.316 µM): 0.63%
viability, T/C (second compound 3.16 µM, first compound 1 µM): 0.09%
viability, T/C (second compound 3.16 µM, first compound 3.16 µM): 1.87%
viability, T/C (second compound 3.16 µM, first compound 10 µM): 1.46%
viability, T/C (second compound 10 µM, first compound 0.0316 µM): 0.08%
viability, T/C (second compound 10 µM, first compound 0.1 µM): 0.52%
viability, T/C (second compound 10 µM, first compound 0.316 µM): 3.6%
viability, T/C (second compound 10 µM, first compound 1 µM): 0.17%
viability, T/C (second compound 10 µM, first compound 3.16 µM): 0.18%
viability, T/C (second compound 10 µM, first compound 10 µM): 2.22%
